Results reported in patent publication US11123351B2, “Pharmaceutical formulation of 3-alpha-ethynyl-3-beta-hydroxyandrostan-17-one oxime” (priority 2017, dated 2021).
Converted amounts (≈) assume the structure as drawn.

Tests used:
[1] = Serum allopregnanolone exposure in the antagonist study; format: in vivo, human
Method: (§1) The antagonist study, with the purpose of evaluating the biological activity of the IND compound, (EudraCT 2015-004911-19) was randomized and placebo-controlled with a double-blind three-part cross-over design. Study subjects orally received: placebo (A); 3 mg of IND formulation (B); or 30 mg of IND formulation (C); followed 90 minutes later by an intravenous (i.v.) allopregnanolone injection (0.05 mg/kg) and repeated measurements of maximal saccadic eye velocity (SEV) (Saccadometer Plus, Ober Consulting Sp. z o.o, Poland) and sedation/somnolence (visual analogue scale graded from “Absence of sleepiness” to “Falling asleep) for three hours.
(§2) The IND compound and allopregnanolone were quantified by UPLC/MS/MS Waters Acquity, C18 column, and Waters XEVO-TQ-S triple quadrupole mass spectrometer. As internal standards D4-[3α-ethynyl-3β-hydroxyandrostan-17-one oxime] and D5-allopregnanolone were used, respectively. For analysis of allopregnanolone oxime-derivatization was used to increase sensitivity. Standard- and QC-samples were prepared into human blank plasma/serum. The detection limit for 3α-ethynyl-3β-hydroxyandrostan-17-one oxime was 1 ng/mL, and for allopregnanolone 0.05 ng/ml (0.15 nmol/L).

GABA-A receptor [2] = test: Antagonist study: allopregnanolone-induced sedation (visual analogue scale); format: in vivo, human; settings: responding subjects, VAS scores
Method: as §1

GABA-A receptor [3] = test: Antagonist study: allopregnanolone-induced decrease in maximal saccadic eye velocity (SEV); format: in vivo, human; settings: responding subjects, responsive period
Method: as §1

[4] = Clinical Phase I 5 day multiple ascending dose (MAD) study, pharmacokinetics and safety; format: in vivo, human; settings: for AUC increase / CMax increase: multiple dose
Description: (§3) In total 90 eligible healthy consenting male subjects (age 18-50 years) were included in the study. The oral formulation used was a capsule containing a lipid solution of 3α-ethynyl-3β-hydroxyandrostan-17-one oxime formulated according to Example 10 above (IND formulation in the following).
(§4) The first in human single ascending dose (SAD) study (EudraCT 2015-004911-19) and the 5 day multiple ascending dose (MAD) study (EudraCT 2016-003651-30) were prospective, randomized, double-blinded and placebo-controlled and designed to assess the safety, tolerability and pharmacokinetic (PK) characteristics of single and multiple ascending oral doses of 3α-ethynyl-3β-hydroxyandrostan-17-one oxime (IND compound) in healthy male volunteers.
MAD: 50 mg once daily; 50 mg twice daily (BID), i.e. 100 mg/day; or 100 mg twice daily (BID), i.e. 200 mg/day.
as §2
(§5) Pharmacokinetic parameters were evaluated using Non-Compartmental Analysis and the software Phoenix WinNonlin® version 6.3 or later (Pharsight Corporation, U.S.A.). Dose proportionality was for the SAD study based on AUC0->∞ and Cmax, and in the MAD study on steady-state AUCτ. The accumulation ratio between the first and last dose was calculated as (steady-state AUCτ/first dose AUC0->∞). Statistical calculations were with IBM SPSS statistics (Version 24, IBM).

[5] = Solubility of 3α-ethynyl-3β-hydroxyandrostan-17-one oxime in aqueous media; format: physicochemical
[6] = Solubility of Compound I in different vehicles (visual inspection); format: physicochemical
Method: The sample was heated, if required to melt the vehicle, to approx. from 15° C.-80° C. and agitated by vortex or stirrer.
Addition was continued until a clear solution was not longer obtained after mixing.
Glycerol monooleate [Cithrol GMO from Croda Health Care] was melted at 50° C. […] The sample was heated and agitated by vortex.
(0.91 g). The sample was heated to approx. 40° C. and agitated by vortex.
The sample was agitated by vortex at room temperature.
The material was stirred at least 30 minutes between each addition.
Upon completed dissolution the temperature was decreased to 30° C. and the solution was filled in hard gelatin capsules of size 0. The target fill weight was 500 mg where after the capsules were capped and kept at −20° C. for 2-3 hours before storage in refrigerator.

[7] = Clinical Phase I single ascending dose (SAD) study, pharmacokinetics and safety; format: in vivo, human
Description: as §3, §4, §2, §5

[8] = allopregnanolone 0.05 mg/kg i.v. + placebo
[9] = day 1, 100 mg BID versus next lower dose
[10] = steady-state, day 5, 100 mg BID versus next lower dose
[11] = single dose 3 mg versus next lower dose
[12] = single dose 10 mg versus next lower dose
[13] = single dose 30 mg versus next lower dose
[14] = single dose 100 mg versus next lower dose
[15] = single dose 200 mg versus next lower dose
[16] = allopregnanolone + Compound I 3 mg oral
[17] = allopregnanolone + Compound I 30 mg oral

## CC(=O)[C@H]1CC[C@H]2[C@@H]3CC[C@H]4C[C@H](O)CC[C@]4(C)[C@H]3CC[C@]12C [Allopregnanolone, allopregnanolone, reference compound]
[1]; first study time point after i.v. injection 0.05 mg/kg, three study occasions
  Highest serum level: 74 to 82 nM
[1]; human, serum, intravenous, 0.05 mg/kg, 10 min after injection, average
  concentration at 10 min: ~80 nM
GABA-A receptor [2]; [8]
  AUC (ΔSedation): 1928 ± 404 mm × min
GABA-A receptor [3]; [8]
  AUC (ΔSEV): −3018 ± 656 deg/s × min

## C#C[C@]1(O)CC[C@@]2(C)C(CC[C@@H]3[C@@H]2CC[C@]2(C)/C(=N/O)CC[C@@H]32)C1 (stereo partly drawn) [Compound I, 3α-ethynyl-3β-hydroxyandrostan-17-one oxime]
[4]; healthy adult males, up to 100 mg every 12 hours for 5 days
  Serious adverse events (SAEs) and dose-limiting toxicity: neither serious adverse events (SAEs) nor dose-limiting toxicity was observed
[4]; human, in vivo
  Increase in AUC0->∞ when the dose was doubled: 1.9 times
[4]; [9]
  AUC increase: 1.9 fold
  CMax increase: 1.4 fold
[4]; [10]
  AUC increase: 1.9 fold
  CMax increase: 1.6 fold
[5]; FaSSIF (fasted-state simulated intestinal fluid), fassif
  Solubility: 7 µg/mL (≈ 21.2 µM)
[5]; FeSSIF (fed-state simulated intestinal fluid), fessif
  Solubility: 19 µg/mL (≈ 57.7 µM)
[5]; SGF (simulated gastric fluid), simulated gastric fluid
  Solubility: 0.2 µg/mL (≈ 0.607 µM)
[5]; water
  Solubility: 1.5 µg/mL (≈ 4.55 µM)
[6]; Capric/caprylic glyceride Imwitor 742, heating temperature 60° C.
  Concentration that could be dissolved: 20000 µg/mL
[6]; Capric/caprylic glyceride Imwitor 742, heating temperature 70° C.
  Concentration that could be dissolved: 40000 µg/mL
[6]; Example 1, Capric/caprylic glycerides, Imwitor 742, 40° C.
  Solubility: 20 to 30 mg/g
[6]; Example 2, Glyceryl monooleate, Cithrol GMO, melted at 50° C.
  Solubility: 8 mg/g
[6]; Example 3, Oleoyl macrogol-6 glycerides, Labrafil M1944 CS, approx. 40° C.
  Solubility: 5 mg/g
[6]; Example 5, Propylenglycol monocaprylate type I, Capryol PGMC, room temperature
  Solubility: 15 mg/g
[6]; Example 6, Propylenglycol monocaprylate type II, Capryol 90, room temperature
  Solubility: 23 mg/g
[6]; Example 7, Polyoxyethylene-8 caprylic/capric glycerides, Acconon MC8-2, room temperature
  Solubility: 2 mg/g
[6]; propylene glycol monolaurate type I (Lauroglycol FCC), oil or lipid, thermodynamic from solid, Example 4, Propylenglycol monolaurate type I, Lauroglycol FCC, room temperature, read-out: Solubility
  Solubility: 6000 µg/mL (≈ 18200 µM)
[7]; healthy adult males, single dose up to 200 mg
  Serious adverse events (SAEs) and dose-limiting toxicity: neither serious adverse events (SAEs) nor dose-limiting toxicity was observed
[7]; human, in vivo, po, 200 mg
  Dose proportionality constant β for AUC0-∞: 1.12
  Dose proportionality constant β for CMax: 1.01
[7]; male, human, in vivo, 1 mg
  AUC(0-inf): 67 ng·h/mL
  Cmax: 0.013 µg/mL
[7]; male, human, in vivo, 3 mg
  AUC(0-inf): 215 ng·h/mL
  Cmax: 0.044 µg/mL
[7]; male, human, in vivo, 10 mg
  AUC(0-inf): 785 ng·h/mL
  Cmax: 0.149 µg/mL
[7]; male, human, in vivo, 30 mg
  AUC(0-inf): 2560 ng·h/mL
  Cmax: 0.464 µg/mL
[7]; male, human, in vivo, 100 mg
  AUC(0-inf): 11900 ng·h/mL
  Cmax: 1.53 µg/mL
[7]; male, human, in vivo, 200 mg
  AUC(0-inf): 25800 ng·h/mL
  Cmax: 2.77 µg/mL
[7]; male, human, in vivo, po
  Tmax: 1 to 2 h
[7]; [11]
  AUC increase: 3.2 fold
  CMax increase: 3.4 fold
[7]; [12]
  AUC increase: 3.7 fold
  CMax increase: 3.4 fold
[7]; [13]
  AUC increase: 3.3 fold
  CMax increase: 3.1 fold
[7]; [14]
  AUC increase: 4.6 fold
  CMax increase: 3.3 fold
[7]; [15]
  AUC increase: 2.2 fold
  CMax increase: 1.8 fold
GABA-A receptor [2]; [16]
  AUC (ΔSedation): 698 ± 332 mm × min
GABA-A receptor [2]; [17]
  AUC (ΔSedation): 416 ± 469 mm × min
GABA-A receptor [3]; [16]
  AUC (ΔSEV): −1592 ± 924 deg/s × min
GABA-A receptor [3]; [17]
  AUC (ΔSEV): −909 ± 798 deg/s × min
